Consider ten molecules from patent US7132286B2, “Method for neural stem cell differentiation using valproate” (Psychiatric Genomics, Inc., priority 2001, dated 2006).

The conditions of data set [1]: literature; cited from earlier work.
The conditions of data set [2]: literature; cited from earlier work. This is another data set of the same source.
In data set [3] the test system is rat cortical stem cells. Nature of the data set: Neuronal differentiation of rat cortical stem cells (β-tubulin III immunofluorescence, cell counting). In kind it is cell-based. The following applies: rat cortical stem cells; for effect on neuronal differentiation (percentage of β-tubulin-III expressing cells) in words: 6 days, vs control; for percentage of β-tubulin III expressing neurons (mean+SD): daily treatment 6 days, 10 ng/ml BDNF, 20 ng/ml NT-3, untreated control 6.2+1.8%. An excerpt: Isolation of cortical and striatal stem cells. Timed pregnant Sprague Dawley rats were obtained from Taconic at embryonic age E14–E15 were sacrificed by inhalation of excess carbon dioxide. The abdomen of the rat was cleaned with 70% ethanol and the uterus was removed quickly and aseptically on the bench top. The uterus was placed in ice cold HBSS (GIBCO Cat. #20012-027) in a 10 cm petridish. After rinsing the uterus in PBS, embryos were removed from the uterus, rinsed in HBSS and collected in cold HBSS (buffered with HEPES and sodium bicarbonate) in a 10 cm petridish and placed on ice.
Plating, expansion and passaging of cortical and striatal stem cells. A generous amount of the triturated cell suspension was left in the original 15 ml tube to avoid fibroblast contamination in cultures. About 4–5 ml of the 6 ml of cells suspension was used for plating. Cells were plated at a concentration of 1.3×10^3 cells to 3.0×10^3 per cm^2 in 100 mm dish. This culture is designated P0 (passage 0).
(§1) Following plating cells were expanded for about 3–4 days (Passage 1, P1). Cells were treated daily with 10 ng/ml bFGF. The cultures were never permitted to reach more than 70% confluency. Cultures were then passaged as follows: 10 ml of HBSS without Ca^2+ and Mg^2+ was added to each 100 mm dish and the cells incubated at 37° C. for 5–15 minutes, or until sufficient numbers of the stem cells were rounded up. It is not expected that all cells in the culture will round up as there are several cell types in the culture at P0. The pH of the HBSS should be neutral at all times during this incubation. Cells were then removed from the dish by pipetting with a 5 ml pipette, and collected in a 15 or 50 ml conical tube, and centrifuged at 1000 g for 5 minutes. Cells were gently re-suspended in medium, counted, and plated at a density of 1×10^6 cells in 10 cm dishes and expanded for about 2 days in bFGF (Passage 1, P1). At that time the cells were passaged as described and plated onto pre-coated poly-L-ornithine/fibronectin vessels at concentrations indicated below for each experiment. Cells were treated with bFGF for 2 additional days. Before each treatment the bFGF was removed from the cells by washing twice with DMEM/F 12 to induce cell differentiation. For neurite outgrowth experiments, cells were seeded at 5×10^3 cells/well in 24-well plates and treated immediately.
(§2) Drug treatment. For immunofluorescence and Western analysis, cells were treated daily with either 0.5 mM of valproate (Sigma), 10 ng/ml of BDNF (R & D Systems), 20 ng/ml of NT-3 (R & D Systems), 1 nM 9cis retinoic acid (Sigma) or a dilution of NCM for 6 or 7 days. In some experiments valproate was also added with NCM and/or 9cis RA for 7 days. For human stem cell experiments, valproate (0.5 mM) or BDNF (25 ng/ml) was added for 9 days. For neurite outgrowth experiments, cells were treated for 1 day with 0.5 mM valproate or 50 ng/ml of BDNF. Where applicable, medium was changed every 2 days. After about 5–10 days, preferably on day 6 (i.e., after 6 days of drug exposure) the cells were fixed with a 4% solution of para-formaldehyde (PFA) in PBS, prepared as follows:
Immunofluorescent staining and visualization. Cells were plated at 20,000 cells/well in poly-L-ornithine/fibronectin (1 mg/ml) coated 24-well plates. After fixation, the PBS was aspirated from the fixed cells and the cells were treated with blocking solution (10% normal goat serum-NGS-Jackson Labs), 0.3% Triton-Sigma, in PBS) to saturate non-specific sites and permeabilize the cells. […]

Data set [4] concerns human striatal stem cells (line 161). Nature of the data set: Neuronal differentiation of human striatal stem cells (β tubulin III neurons, total cells). In kind it is cell-based. The following applies: 9 days, 0.5 mM valproate, BDNF 25 ng/ml, untreated control 40%. Here is the method:
Expansion and differentiation of striatal human stem cells. Human stem cells were provided from ReNeuron Inc. (U.K.). Striatum was obtained after 6 to 12 weeks of gestation from routine legal abortion. Cell line was provided by ReNeuron at passage 16. The stem cells were expanded in untreated 25 cm^2 tissue culture flasks (Nunc, USA) in the presence of 20 ng/ml and 10 ng/ml of human recombinant EGF and bFGF respectively, in NSA basal serum-free medium (Euroclone, U.K). Fresh medium and growth factors were added every 3 days. In these conditions stem cells were growing as floating neurospheres. After 4 weeks, the neurospheres were harvested, treated with a mild papain treatment in HBSS and dissociated into a single cell suspension. Cells were counted and viability was estimated by trypan blue exclusion method. Cells were differentiated by growth factors removal. The cells were plated in NSA medium at 20,000 cells/well on LabTek permanox culture slides of 8 wells precoated with laminin (1 μg/ml). Cells were treated with valproate and BDNF for 9 days at 37° C. and a saturated humidified atmosphere of 5% CO2, 1% O2 and 94% N2. Fresh medium and re-treatment with factors was performed every 3 days.
as §2
Immunofluorescent staining and visualization. Cells were plated at 20,000 cells/well in poly-L-ornithine/fibronectin (1 mg/ml) coated 24-well plates. […]
For counting, three to five different fields of interest at magnification 10× or 20× were chosen randomly. For immunofluorescence, 3 different black and white pictures were taken by field of interest with a digital camera CoolSnap Fx (Princeton) corresponding to the exposure of Cy2, Cy3 and Hoechst fluorescence. […] The percentage of neurons, astrocytes and GABAergic cells was determined by comparing the number of cells immunopositive for β-tubulin III, GFAP and GABA to the number of bis-benzamide stained nuclei (i.e., total cell number). […]

Data set [5] concerns rat cortical stem cells. Kind of data set: Neurite outgrowth of neurons derived from rat cortical stem cells (ArrayScan neurite outgrowth index). In kind it is cell-based. The note with it: 1 day; 0.5 mM valproate, 50 ng/ml BDNF; control 35.1+0.3. Here is the method: as §1, with “At that time the cells were passaged as described and plated onto pre-coated poly-L-ornithine/fibronectin vessels at concentrations indicated below for each experiment. Cells were treated with bFGF for 2 additional days. Before each treatment the bFGF was removed from the cells by washing twice with DMEM/F 12 to induce cell differentiation. For neurite outgrowth experiments, cells were seeded at 5×10^3 cells/well in 24-well plates and treated immediately.” left out
For analysis of neurite outgrowth, digital images were taken with an ArrayScan HCS System (Cellomics, Pa.) of 100 cells/well treated with valproate (0.5 mM) and BDNF (50 ng/ml) for 1 day. […] Neurite outgrowth index is defined as the percentage of cells whose neurites total more than 20 μm in length, and is calculated using Cellomics' Neurite Outgrowth application.

Regarding `CCCCC(CCCC)C(=O)O` [2-butylhexnoic acid], the “effect on proliferation and differentiation” value in data set [1] was “inhibit proliferation and enhance differentiation”. Also, the teratogenic activity entry in data set [2] was “in vivo teratogenic activity”.
Take `CCCCC(CCC)C(=O)O` (stereo not drawn) [2-propylhexanoic acid]: the “effect on proliferation and differentiation” value in data set [1] was “inhibit proliferation and enhance differentiation”. Besides, the teratogenic activity result in data set [2] is “in vivo teratogenic activity”.
Turning to `CCC=C(CCC)C(=O)O` [2-en-valproate], the “effect on proliferation and differentiation” value in data set [1] is “have not been shown to affect differentiation”. The teratogenic activity result in data set [2] is recorded as “Non-teratogenic”.
Regarding `CC1=C(/C=C/C(C)=C\C=C\C(C)=C\C(=O)O)C(C)(C)CCC1` [9-cis RA, 9-cis retinoic acid], in the data set with rat cortical stem cells [3] (daily treatment 7 days, 0.5 mM valproate, 0.5× NCM, 1 nM 9-cis RA), the “neuronal differentiation compared to control, in words” value is reported as “increased the neuronal differentiation”.
Turning to `CCCC(CC(C)C)C(=O)O` (stereo not drawn) [4 methyl-valproate], the “effect on proliferation and differentiation” value in data set [1] is given as “have not been shown to affect differentiation”. In addition, the teratogenic activity result in data set [2] was “Non-teratogenic”.
With `C#CC[C@H](CCC)C(=O)O` [(s)-4-yn-valproate], the “effect on proliferation and differentiation” value in data set [1] is “inhibit proliferation and enhance differentiation”. The teratogenic activity entry in data set [2] is recorded as “in vivo teratogenic activity”.
For `C#CCC(CCC)C(=O)O` (stereo not drawn) [R-4-yn-valproate], in data set [1], the “effect on proliferation and differentiation” value is on record as “have not been shown to affect differentiation”. The teratogenic activity entry in data set [2] is recorded as “Non-teratogenic”.
Regarding `CCCCC(CC)C(=O)O` (stereo not drawn) [2-ethylhexanoic acid], the “effect on proliferation and differentiation” value in data set [1] was “inhibit proliferation and enhance differentiation”. Further, in data set [2], the teratogenic activity result is listed as “in vivo teratogenic activity”.

B1: NT-3: Neurotrophin-3 (R & D Systems) (protein, UniProt P20783 139-257, looked up)
Neurotrophin-3: YAEHKSHRGEYSVCDSESLWVTDKSSAIDIRGHQVTVLGEIKTGNSPVKQYFYETRCKEARPVKNGCRGIDDKHWNSQCKTSQTYVRALTSENNKLVGWRWIRIDTSCVCALSRKIGRT
As to B1, in the data set on rat cortical stem cells [3], the “effect on neuronal differentiation (percentage of β-tubulin-III expressing cells) in words” value is reported as “didn't have any effect”. For the same molecule, the “percentage of β-tubulin III expressing neurons (mean+SD)” value with rat cortical stem cells [3] (0.5 mM valproate) is 8+1%.

B2: BDNF: brain-derived neurotrophic factor (R & D Systems), known promoter of neural stem cell differentiation (protein, UniProt P23560 19-247, looked up)
Neurotrophic factor BDNF …: APMKEANIRGQGGLAYPGVRTHGTLESVNGPKAGSRGLTSLADTFEHVIEELLDEDQKVRPNEENNKDADLYTSRVMLSSQVPLEPPLLFLLEEYKNYLDAANMSMRVRRHSDPARRGELSVCDSISEWVTAADKKTAVDMSGGTVTVLEKVPVSKGQLKQYFYETKCNPMGYTKEGCRGIDKRHWNSQCRTTQSYVRALTMDSKKRIGWRFIRIDTSCVCTLTIKRGR
Take B2: in the data set with rat cortical stem cells [3], the “effect on neuronal differentiation (percentage of β-tubulin-III expressing cells) in words” value is “increased the percentage of β-tubulin-III expressing cells over control but was less effective than valproate”. Further, the “percentage of β-tubulin III expressing neurons (mean+SD)” value with rat cortical stem cells [3] (0.5 mM valproate) is 12.7+2%. Also, the neuronal differentiation in data set [4] came to 58%. Moreover, the “neurite index (percentage of cells whose neurites total more than 20 μm in length)” value in the data set on rat cortical stem cells [5] was 38.3+1.
